Assay results: patent publication US10406146B2, “Heterocyclic compound” (TAKEDA PHARMACEUTICAL COMPANY LIMITED, priority 2015, dated 2019)

What was measured:
Type in all cases: biochemical
[1] = biological target: T1, HDAC6 enzyme (Homo sapiens, UniProt Q9UBN7); assay: HDAC6 enzyme inhibitory assay (HDAC-Glo I/II Assay kit); settings: wells without enzyme = 100% inhibition, read-out: HDAC6 inhibitory rate (%) (1 μM)
T1 construct: transducing full length HDAC1 and HDAC6 genes into Sf-9 insect cells; GST; purchased SignalChem; host or cells: Sf-9 insect cells
T1 sequence (Q9UBN7 1-1215): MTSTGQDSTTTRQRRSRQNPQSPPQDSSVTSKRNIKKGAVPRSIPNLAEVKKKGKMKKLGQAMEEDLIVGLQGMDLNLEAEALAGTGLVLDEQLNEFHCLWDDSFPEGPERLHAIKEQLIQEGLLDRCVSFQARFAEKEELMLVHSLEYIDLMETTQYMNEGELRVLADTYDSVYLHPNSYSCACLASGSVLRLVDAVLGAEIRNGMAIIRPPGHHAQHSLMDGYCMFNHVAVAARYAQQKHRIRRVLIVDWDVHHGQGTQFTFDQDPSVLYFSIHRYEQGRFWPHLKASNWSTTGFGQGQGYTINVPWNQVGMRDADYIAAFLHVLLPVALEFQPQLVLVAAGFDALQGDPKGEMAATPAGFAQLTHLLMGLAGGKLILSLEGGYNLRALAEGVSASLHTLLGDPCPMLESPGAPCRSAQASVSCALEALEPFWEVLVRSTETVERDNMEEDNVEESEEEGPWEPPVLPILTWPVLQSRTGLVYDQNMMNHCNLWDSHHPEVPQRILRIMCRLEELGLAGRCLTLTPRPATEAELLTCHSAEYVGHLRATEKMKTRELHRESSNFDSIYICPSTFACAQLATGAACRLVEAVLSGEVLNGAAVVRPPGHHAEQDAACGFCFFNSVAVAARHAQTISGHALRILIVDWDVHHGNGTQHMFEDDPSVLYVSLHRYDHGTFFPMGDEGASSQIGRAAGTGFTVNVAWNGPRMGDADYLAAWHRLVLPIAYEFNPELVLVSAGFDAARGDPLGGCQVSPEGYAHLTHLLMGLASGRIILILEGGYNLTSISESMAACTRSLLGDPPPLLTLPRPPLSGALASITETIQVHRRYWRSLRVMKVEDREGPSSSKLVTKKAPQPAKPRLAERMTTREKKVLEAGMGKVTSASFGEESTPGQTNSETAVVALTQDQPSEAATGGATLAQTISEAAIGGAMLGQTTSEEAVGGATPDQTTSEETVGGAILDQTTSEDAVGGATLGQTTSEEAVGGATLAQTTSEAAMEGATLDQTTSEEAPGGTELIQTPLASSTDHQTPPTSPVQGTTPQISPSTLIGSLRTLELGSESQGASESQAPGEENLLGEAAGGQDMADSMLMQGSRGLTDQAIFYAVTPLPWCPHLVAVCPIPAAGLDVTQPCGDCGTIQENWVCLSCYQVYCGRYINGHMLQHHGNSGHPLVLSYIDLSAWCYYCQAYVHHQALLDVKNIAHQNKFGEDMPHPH
Procedure, shortened: (§1)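 Steps: compound in pH 7.5 Tris buffer plus enzyme (full-length HDAC1 or HDAC6 from Sf-9, GST-purified), 60 min at room temperature; add HDAC-Glo substrate-developer; react 20 min; read luminescence. Relative activity is calculated against enzyme-free wells taken as full inhibition.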

[2] = biological target: T2, HDAC1 enzyme (Homo sapiens, UniProt Q13547); assay: HDAC1 enzyme inhibitory assay (HDAC-Glo I/II Assay kit); settings: wells without enzyme = 100% inhibition, read-out: HDAC1 inhibitory rate (%) (1 μM)
T2 construct: transducing full length HDAC1 and HDAC6 genes into Sf-9 insect cells; GST; purchased SignalChem; host or cells: Sf-9 insect cells
Procedure, shortened: as §1

[3] = biological target: T3, HDAC9 enzyme (Homo sapiens, UniProt Q9UKV0); assay: HDAC9 enzyme inhibitory assay (HDAC-Glo class IIa); settings: wells without enzyme = 100% inhibition, read-out: HDAC9 inhibitory rate (%) (1 μM)
T3 construct: transducing full length HDAC9 gene into Sf-9 insect cells; made in house; host or cells: Sf-9 insect cells
Procedure, shortened: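 Full-length human HDAC9 from Sf-9 cells, Ni-NTA purified, preincubated with compound for 60 min at room temperature in Tris-HCl pH 7.5 buffer (MgCl2, KCl, NaCl, glutathione, Tween-20). HDAC-Glo class IIa substrate-developer added; luminescence read after 20 min, with no-enzyme wells defining 100% inhibition.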

T2 sequence (Q13547 whole entry): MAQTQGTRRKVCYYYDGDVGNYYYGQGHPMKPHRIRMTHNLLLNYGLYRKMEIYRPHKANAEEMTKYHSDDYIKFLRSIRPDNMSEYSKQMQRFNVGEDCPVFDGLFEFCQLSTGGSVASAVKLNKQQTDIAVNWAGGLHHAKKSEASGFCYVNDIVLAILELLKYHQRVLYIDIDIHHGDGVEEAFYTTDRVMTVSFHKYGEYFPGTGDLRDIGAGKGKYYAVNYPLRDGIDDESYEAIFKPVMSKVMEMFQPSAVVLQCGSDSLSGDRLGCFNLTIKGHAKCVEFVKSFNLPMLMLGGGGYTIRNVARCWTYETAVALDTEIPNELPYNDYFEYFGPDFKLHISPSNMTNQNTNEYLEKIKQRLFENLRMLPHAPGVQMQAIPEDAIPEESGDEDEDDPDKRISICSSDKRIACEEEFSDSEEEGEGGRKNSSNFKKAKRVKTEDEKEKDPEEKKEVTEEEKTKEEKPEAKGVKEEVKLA
T3 sequence (Q9UKV0 whole entry, species assumed): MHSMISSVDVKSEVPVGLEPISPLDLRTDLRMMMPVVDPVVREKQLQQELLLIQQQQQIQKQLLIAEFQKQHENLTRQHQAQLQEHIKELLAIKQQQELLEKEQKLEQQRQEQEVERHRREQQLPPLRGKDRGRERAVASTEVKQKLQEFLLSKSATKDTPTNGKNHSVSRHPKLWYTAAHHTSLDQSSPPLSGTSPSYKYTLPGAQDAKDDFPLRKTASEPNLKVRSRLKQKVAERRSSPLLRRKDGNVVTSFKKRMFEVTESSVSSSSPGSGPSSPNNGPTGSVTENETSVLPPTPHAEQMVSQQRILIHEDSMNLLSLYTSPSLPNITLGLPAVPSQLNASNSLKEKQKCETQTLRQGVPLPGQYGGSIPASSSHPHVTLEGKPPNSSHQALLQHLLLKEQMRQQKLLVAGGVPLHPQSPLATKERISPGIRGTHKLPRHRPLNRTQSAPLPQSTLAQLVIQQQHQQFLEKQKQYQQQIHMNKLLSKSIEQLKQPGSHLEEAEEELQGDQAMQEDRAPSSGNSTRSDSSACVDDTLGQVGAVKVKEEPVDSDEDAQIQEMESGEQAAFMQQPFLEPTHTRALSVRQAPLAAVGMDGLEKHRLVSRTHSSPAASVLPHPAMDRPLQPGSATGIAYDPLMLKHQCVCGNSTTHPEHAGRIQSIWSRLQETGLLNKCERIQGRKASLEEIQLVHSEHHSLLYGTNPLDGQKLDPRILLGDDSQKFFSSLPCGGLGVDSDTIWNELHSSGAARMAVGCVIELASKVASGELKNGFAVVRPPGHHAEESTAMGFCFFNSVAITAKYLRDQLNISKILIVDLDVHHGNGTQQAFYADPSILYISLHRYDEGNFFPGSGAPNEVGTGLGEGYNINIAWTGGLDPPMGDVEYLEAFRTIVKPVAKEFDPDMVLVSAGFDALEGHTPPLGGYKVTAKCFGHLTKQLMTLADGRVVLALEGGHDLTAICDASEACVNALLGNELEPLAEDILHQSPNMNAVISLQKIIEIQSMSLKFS

SMILES | inhibition at 1 µM [1] [%] | inhibition at 1 µM [2] [%] | inhibition at 1 µM [3] [%]
O=C(NCC1CCCCN1C(=O)Nc1ccc(-c2noc(C(F)(F)F)n2)cc1)c1ccc(F)cc1 (stereo not drawn) [Example 6, 2-(((4-fluorobenzoyl)amino)methyl)-N-(4-(5-(trifluoromethyl)-1,2,4-oxadiazol-3-yl)phenyl)piperidine-1-carboxamide] | 5 | 34 | 94
O=C(NCC1CCCCN1C(=O)Nc1ccc(-c2noc(C(F)(F)F)n2)cc1)c1ccccc1 (stereo not drawn) [Example 2, 2-((benzoylamino)methyl)-N-(4-(5-(trifluoromethyl)-1,2,4-oxadiazol-3-yl)phenyl)piperidine-1-carboxamide] | 10 | 80 | 90
O=C(NCC1CCCCN1C(=O)Nc1ccc(-c2noc(C(F)(F)F)n2)cc1)c1ccccc1Cl (stereo not drawn) [Example 7, 2-(((2-chlorobenzoyl)amino)methyl)-N-(4-(5-(trifluoromethyl)-1,2,4-oxadiazol-3-yl)phenyl)piperidine-1-carboxamide] | 3 | -3 | 52
NC(=O)c1ccc(C(=O)NCC2CCCCN2C(=O)Nc2ccc(-c3noc(C(F)(F)F)n3)cc2)cc1 (stereo not drawn) [Example 22, N-((1-((4-(5-(trifluoromethyl)-1,2,4-oxadiazol-3-yl)phenyl)carbamoyl)piperidin-2-yl)methyl)terephthalamide] | 2 | 6 | 90
O=C(NCC1CCCCN1C(=O)Nc1ccc(-c2noc(C(F)(F)F)n2)cc1)c1ccc(C(F)(F)F)cc1 (stereo not drawn) [Example 18, 2-(((4-(trifluoromethyl)benzoyl)amino)methyl)-N-(4-(5-(trifluoromethyl)-1,2,4-oxadiazol-3-yl)phenyl)piperidine-1-carboxamide] | 2 | -7 | 39
N#Cc1cccc(C(=O)NCC2CCCCN2C(=O)Nc2ccc(-c3noc(C(F)(F)F)n3)cc2)c1 (stereo not drawn) [Example 20, 2-(((3-cyanobenzoyl)amino)methyl)-N-(4-(5-(trifluoromethyl)-1,2,4-oxadiazol-3-yl)phenyl)piperidine-1-carboxamide] | 4 | 32 | 95
Cc1ccc(C(=O)NCC2CCCCN2C(=O)Nc2ccc(-c3noc(C(F)(F)F)n3)cc2)cc1 (stereo not drawn) [Example 12, 2-(((4-methylbenzoyl)amino)methyl)-N-(4-(5-(trifluoromethyl)-1,2,4-oxadiazol-3-yl)phenyl)piperidine-1-carboxamide] | 5 | -16 | 67

Other lines, results leading:

inhibition at 1 µM [1] [%] | inhibition at 1 µM [2] [%] | inhibition at 1 µM [3] [%] | SMILES
5 | 47 | 90 | Cn1ccnc1C(=O)NCC1CCCCN1C(=O)Nc1ccc(-c2noc(C(F)(F)F)n2)cc1 (stereo not drawn) [Example 39, 2-((((1-methyl-1H-imidazol-2-yl)carbonyl)amino)methyl)-N-(4-(5-(trifluoromethyl)-1,2,4-oxadiazol-3-yl)phenyl)piperidine-1-carboxamide]
2 | 31 | 85 | Cc1cccc(C(=O)NCC2CCCCN2C(=O)Nc2ccc(-c3noc(C(F)(F)F)n3)cc2)n1 (stereo not drawn) [Example 55, 6-methyl-N-((1-((4-(5-(trifluoromethyl)-1,2,4-oxadiazol-3-yl)phenyl)carbamoyl)piperidin-2-yl)methyl)pyridine-2-carboxamide]
3 | 8 | 71 | Cn1nc(C(=O)NCC2CCCCN2C(=O)Nc2ccc(-c3noc(C(F)(F)F)n3)cc2)c2ccccc21 (stereo not drawn) [Example 42, 1-methyl-N-((1-((4-(5-(trifluoromethyl)-1,2,4-oxadiazol-3-yl)phenyl)carbamoyl)piperidin-2-yl)methyl)-1H-indazole-3-carboxamide]
7 | 68 | 89 | O=C(CCc1ccccc1)NCC1CCCCN1C(=O)Nc1ccc(-c2noc(C(F)(F)F)n2)cc1 (stereo not drawn) [Example 47, 2-(((3-phenylpropanoyl)amino)methyl)-N-(4-(5-(trifluoromethyl)-1,2,4-oxadiazol-3-yl)phenyl)piperidine-1-carboxamide]
7 | 57 | 74 | O=C(NCC1CCCCN1C(=O)Nc1ccc(-c2noc(C(F)(F)F)n2)cc1)C1CCc2ccccc2O1 (stereo not drawn) [Example 43, 2-(((3,4-dihydro-2H-chromen-2-ylcarbonyl)amino)methyl)-N-(4-(5-(trifluoromethyl)-1,2,4-oxadiazol-3-yl)phenyl)piperidine-1-carboxamide]
1 | 10 | 63 | Cn1nc(C(=O)NCC2CCCCN2C(=O)Nc2ccc(-c3noc(C(F)(F)F)n3)cc2)cc1C(F)(F)F (stereo not drawn) [Example 59, 2-((((1-methyl-5-(trifluoromethyl)-1H-pyrazol-3-yl)carbonyl)amino)methyl)-N-(4-(5-(trifluoromethyl)-1,2,4-oxadiazol-3-yl)phenyl)piperidine-1-carboxamide]
6 | 53 | 92 | Cn1nccc1C(=O)NC[C@H]1COCCN1C(=O)Nc1ccc(-c2noc(C(F)(F)F)n2)cc1 [Example 62, (3S)-3-((((1-methyl-1H-pyrazol-5-yl)carbonyl)amino)methyl)-N-(4-(5-(trifluoromethyl)-1,2,4-oxadiazol-3-yl)phenyl)morpholine-4-carboxamide]
5 | 63 | 97 | O=C(NCC1CCCCN1C(=O)Nc1ccc(-c2noc(C(F)(F)F)n2)cc1)c1ccncc1 (stereo not drawn) [Example 36, N-((1-((4-(5-(trifluoromethyl)-1,2,4-oxadiazol-3-yl)phenyl)carbamoyl)piperidin-2-yl)methyl)isonicotinamide]
